Test results: patent US20160279204A1, “PEPTIDES AND PHARMACEUTICAL COMPOSITIONS FOR USE IN THE TREATMENT BY NASAL ADMINISTRATION OF PATIENTS SUFFERING FROM ANXIETY AND SLEEP DISORDERS” (MAX-PLANCK-GESELLSCHAFT ZUR FÖRDERUNG DER WISSENSCHAFT E.V., priority 2011, published 2016)
Entries after “also recorded” stand apart in the source; their conditions may differ.

What was measured:
Bl6 and HAB mice = experiment: Open field after intranasal NPS; type: in vivo, mouse
Description: Behavioural tests (open field, dark-light test and elevated plus maze (EPM)) following intranasal NPS application were performed sequentially. Each test lasted for 5 min with an inter-test interval of 5 min, as described previously (Bunck et al., 2009; Krömer et al., 2005). The animals' behaviour during testing was videotaped and relevant parameters were analysed with the tracking software ANY-maze version 4.30 (Stoelting, Wood Dale, Ill., USA). Native NPS (1 μg/μL) or vehicle (Ringer solution) were administered intranasally to the alert mouse as described above (total volume: 14 μL). Mice were tested 30 min and 4 hrs after intranasal administration of first drop. Animals were sacrificed 24 hrs after treatment and prefrontal cortex and bilateral hippocampi were prepared immediately and shock-frozen in methylbutane.
After having ascertained that nasally administered NPS reaches its target cells, anxiolytic effects of NPS were established for this transnasal delivery method. For this purpose, nasally 6.36 nmol NPS per mouse was administered to two mouse strains, Bl6 and HAB (high anxiety behaviour) mice. HAB animals, a mouse strain inbred for pathologically high anxiety, were chosen together with Bl6 mice to allow differentiation between the temporary condition of state anxiety and the general condition of trait anxiety (Bunck et al., 2009; Kromer et al., 2005). To accurately characterise the anxiety-relieving properties of NPS in these two mouse strains, three standardised behavioural assays measuring anxiolytic effects at two different time points after intranasal NPS administration were performed. In each test, the effects of intranasal NPS versus vehicle treatment on both anxiety- and locomotion-related indices were examined.

C57BL/6N mice [1] = experiment: Elevated plus maze after bilateral NPS injection into CA1 of the VH; type: in vivo, mouse; details: 0.1 nmol NPS each side into CA1 of VH, 30 min
Description: (§1) Animals were fixed in a stereotactic frame and maintained under isoflurane anesthesia (Forene® 100%, V/V; induction: 2.5%; maintenance: 1.5%; in O2; flow rate: 1 L/min). The mice received acute analgesic treatment with Metacam s.c. during surgery (0.5 mg/kg; in NaCl). 23 gauge stainless-steel guide cannulas were implanted in the CA1 region of the VH at the following coordinates: 3.1 mm posterior, ±3 mm lateral from bregma, and 2 mm ventral from the skull surface (Franklin and Paxinos, 2007). The guide cannulas were fixed with two screws and a two-component adhesive. For behavioural experiments, animals were implanted bilaterally for later bilateral injection, whereas for Cy3-NPS injections, implantation was performed unilaterally. The animals were allowed to recover for at least 6 days before starting the behavioural experiments. Substance infusions were carried out manually, on mice anesthetised by brief inhalation of isoflurane, using a 30 gauge injection cannula connected to a Tygon tube and a 10 μL Hamilton syringe. After infusion, the injection cannula was kept in place for additional 30 s to prevent substance outflow.
Mice were injected bilaterally either with 0.1 nmol NPS in 0.5 μL ACSF for each side or with 0.5 μL of ACSF for each side. 30 min after injection, three behavioural assays [open field, dark-light test, and elevated plus maze (EPM)] were performed sequentially in the order mentioned. Each test lasted 5 min, with a 5 min break in between, as described in Kromer et al., 2005 and Bunck et al., 2009. Animal behaviour was videotaped and relevant parameters were analysed using the tracking software ANY-maze version 4.30 (Stoelting, Wood Dale, Ill., USA). Mice were sacrificed 24 h after completion of behavioural assays and the locations of the guide cannulas were checked in histological cryosections of 40 μm counterstained with DAPI. Mice with deviating injection sites were excluded from further analysis.

C57BL/6N mice [2] = experiment: Dark-light test after bilateral NPS injection into CA1 of the VH; type: in vivo, mouse; details: 0.1 nmol NPS each side into CA1 of VH, 30 min
Description: as §1, with “After infusion, the injection cannula was kept in place for additional 30 s to prevent substance outflow.” left out
Mice were injected bilaterally either with 0.1 nmol NPS in 0.5 μL ACSF for each side or with 0.5 μL of ACSF for each side. […] Animal behaviour was videotaped and relevant parameters were analysed using the tracking software ANY-maze version 4.30 (Stoelting, Wood Dale, Ill., USA). […]

[3] = tested on: evoked neuronal activity flow from the dentate gyrus to area CA1; experiment: Voltage-sensitive dye imaging (VSDI) in VH slices; design: species or system mouse; details: bath application of NPS 1 μM
Description: According to Maggio and Segal (2007) and Fanselow and Dong (2010), VSDI experiments were conducted in the VH. Horizontal brain slices (350 μm-thick) were prepared as described in Refojo et al., 2011 and/or von Wolff et al., 2011). Only the first two slices from the ventral surface of the brain in which the CA1 region was clearly visible were used for the measurements. Staining of slices with the voltage-sensitive dye Di-4-ANEPPS and VSDI were carried out at room temperature (23-25° C.). For staining, slices were kept for 15 min in carbogenated (95% O2/5% CO2) ACSF containing Di-4-ANEPPS (7.5 μg/mL; <0.1% DMSO). The ACSF (pH 7.4) consisted of (in mM): 125 NaCl, 2.5 KCl, 25 NaHCO3, 1.25 NaH2PO4, 2 CaCl2, 1 MgCl2, and 25 glucose. Afterwards, slices were stored for at least 30 min in pure carbogenated ACSF. In the recording chamber, slices were continuously superfused with carbogenated ACSF (3 mL/min flow rate). VSDI and data analysis were performed using the MiCAM02 hard- and software package (BrainVision, Tokyo, Japan). The tandem-lens fluorescence microscope was equipped with the MiCAM02-HR camera and the 2× and 1× lens at the objective and condensing side, respectively. Acquisition settings were: 88×60 pixels frame size, 36.4×40.0 μm pixel size, and 2.2 ms sampling time. To reduce noise, four acquisitions subsequently recorded at intervals of 5 s were averaged. Neuronal activity was evoked by square pulse electrical stimuli (200 μs, 15-20 V) delivered to the dentate gyrus granule cell layer via a custom-made monopolar tungsten electrode (Teflon-insulated to the tip of 75 μm diameter). From recorded signals, the fractional change in fluorescence (ΔF/F) was calculated. For all quantifications, ΔF/F values were spatially and temporally smoothed using a 3×3×3 average filter. VSDI signals presented in images were smoothed with a 5×5×3 average filter. Pixelation of images was reduced by the interpolation function of the MiCAM02 software. […]

In the case of “neuropeptide S (SFRNGVGSGVKKTSFRRAKQ; Neuropeptide S; UniProt P0C0P7 70-89, looked up) [NPS, peptide agonist of neuropeptide S receptor (NPSR); native NPS, rat, from Bachem]”, the “behavioural differences versus vehicle in open field” value (Bl6 and HAB mice; Bl6 and HAB mice, intranasal 6.36 nmol per mouse, 30 min) is reported as “no behavioural differences”, the “any parameter examined in the open field” value (Bl6 and HAB mice; Bl6 mice, intranasal, 4 hrs) is reported as “no effect” and the “any parameter tested in the open field” value (Bl6 and HAB mice; HAB mice, intranasal, 4 hrs) is reported as “no differences”. For the same substance, the “anxiety-related behaviour on the EPM” value (C57BL/6N mice [1]) was “significant anxiolytic effect; also recorded: decreased anxiety-related behaviour”, the “increase in the percentage of time spent on the open arms compared to vehicle-treated mice” value (C57BL/6N mice [1]) was 28% and the “locomotion on the EPM” value (C57BL/6N mice [1]) was “did not affect locomotion; also recorded: without affecting locomotion”. For the same substance, the “anxiety- and locomotion-related behaviour in the dark-light test” value (C57BL/6N mice [2]) was “did not affect locomotion; also recorded: not altered”, the “activity flow from the dentate gyrus to the CA1 subfield” value [3] was “rapidly weakened” and the FDS peak amplitudes ([3]; dentate hilus, CA3 region, area CA1) was “reduced the amplitude of FDSs in the dentate hilus, the CA3 region, and area CA1; also recorded: decreased FDS peak amplitudes”.
